Assay results taken from patent publication US5798097A, “Immunogobulin conjugates” (Pharmacia & Upjohn S.p.A., priority 1987, dated 1998).

Key:
CBA mice (organs) = test: Histopathology after single i.v. dose; assay type: in vivo; conditions: 1.0 mg/kg i.v.
Description: (§1) Groups of 10-20 CBA mice were given a single i.v. injection of various doses of Ida or Ida-anti-Ly-2.1 and the survival of mice was recorded against the dose of drug delivered in mg/kg. The organs of these mice were removed and weighed prior to formalin fixation and staining by haematoxylin and eosin.

solid E3 tumour = test: Intratumour treatment of E3 tumours in CBF1 mice; assay type: in vivo; conditions: days 5 and 6, total Ida=30 ug
Description: The E3 tumour was maintained in vivo by serial passage into (C57BL/6×BALB/c)F1 mice (CBF1 mice). Cells from the ascites fluid were washed and centrifuged (400 g×5 min) twice in phosphate buffered saline (PBS), pH7.3, resuspended in PBS and injected subcutaneously (s.c.) into the abdominal wall of mice; these developed into palpable tumours prior to treatment. Mice were subjected to a series of intraveneous (i.v.) or intratumour (i.t.) treatments and the subsequent size of tumours was measured daily with a caliper square, measuring along the perpendicular axes of the tumours. Data was recorded as mean tumour size (product of two diameters ± standard error).

CBA mice = test: Acute toxicity, single i.v. injection in CBA mice; assay type: in vivo
Description: as §1
(§2) For acute toxicity experiments groups of 10 CBA (Ly2.1^+) mice were given a single injection of various doses of either Ida, Ida-anti-Ly-2.1 or Ida-anti-TFR. […] Ida-MoAb conjugates were not tested to an LD50 dose.

[1] = Acute toxicity, single i.v. injection in CBA mice; assay type: in vivo; conditions: mouse, in vivo, iv; Table 2; Ida (mg/kg)
Description: as §1, §2

tumour cell lines tested = test: 24 hour assay, tumour cell lines tested (Example 2); assay type: cell-based
Description: […] Cells were then centrifuged (400 g×5 min), resuspended in growth medium and 100 ul aliquots were seeded into a microtitre plate using duplicate wells for each sample before an incubation period of 16-24 hours. After the incubation period in both these assays, 50 ul of growth medium containing 1 uCi of [^3 H]-thymidine (specific activity=5 Ci/mmol; Amersham) was added and the plates incubated for 2-4 hours. Cells were then harvested and dried, and individual samples were separated and counted on a beta scintillation counter.

COLO 205 [2] = test: 30 minute inhibition assay ([^3 H]-thymidine incorporation), COLO 205; assay type: cell-based; conditions: Homo sapiens, 0.5 h
Description: (§3) The cell lines examined in this study included the (Ly-2^+) murine thymoma ITT(1) 75NS E3 variant (E3) (Smyth et al, J. Natl Cancer Inst. 1986 76 503-510), the (Ly-2^-, TFR^-) lymphoma EL4 (Horowitz et al, Science 1968 160 533-535), the (TFR^+) human cell line CEM (Foley et al Cancer 1965 18 522-529) and the (250-30.6^+) human cell line COLO 205. […] Mice were subjected to a series of intraveneous (i.v.) or intratumour (i.t.) treatments and the subsequent size of tumours was measured daily with a caliper square, measuring along the perpendicular axes of the tumours. Data was recorded as mean tumour size (product of two diameters ± standard error).
(§4) (b) 30 minute inhibition assay: 200 ul of cells (2-5×10^6 /ml) were collected in sterile Eppendorf tubes, resuspended in sterile drug or conjugate and mixed for 30 min at 37° C. […] Cells were then harvested and dried, and individual samples were separated and counted on a beta scintillation counter.
(§5) Data was recorded as mean tumour size (product of two diameters ± standard error).

human cell line CEM [3] = test: cells; assay type: cell-based; conditions: 0.5 h, Table 3, 30 min, read-out: Mean I.D.50 values (Ida (M))
Description: as §3, §4, §5

E3 and CEM cell lines = test system: E3 and CEM cell lines
Description: (§6) (b) 30 minute inhibition assay: 200 ul of cells (2-5×10^6 /ml) were collected in sterile Eppendorf tubes, resuspended in sterile drug or conjugate and mixed for 30 min at 37° C. Cells were then centrifuged (400 g×5 min), resuspended in growth medium and 100 ul aliquots were seeded into a microtitre plate using duplicate wells for each sample before an incubation period of 16-24 hours. After the incubation period in both these assays, 50 ul of growth medium containing 1 uCi of [^3 H]-thymidine (specific activity=5 Ci/mmol; Amersham) was added and the plates incubated for 2-4 hours. Cells were then harvested and dried, and individual samples were separated and counted on a beta scintillation counter.

[4] = test system: murine thymoma ITT(1) 75NS E3 (Ly-2^+); test: 24 hour inhibition assay ([^3 H]-thymidine incorporation), E3; assay type: cell-based; conditions: Mus musculus
Excerpt: as §3, with “205. Cells were maintained in vitro in Dulbecco's Modified Eagle's medium (DME) or RPMI 1640 medium (Flow Laboratories, Sydney, Australia), supplemented with 10% heat inactivated newborn calf serum (Flow), 2 mM glutamine (Commonwealth Serum Laboratories, Sydney, Australia); 100 ug/ml streptomycin (Glaxo, Melbourne, Australia) and 100 I.U./ml penicillin (Commonwealth Serum Laboratories).” for “205.”
as §4

(L3T4^+) lymphoma EL4 [5] = test: 30 minute inhibition assay ([^3 H]-thymidine incorporation), EL4; assay type: cell-based; conditions: 0.5 h; Table 3; EL4, 30 min; read-out: Mean I.D.50 values (Ida (M))
Description: as §6, with “counter. Incorporation of [^3 H]-thymidine was expressed as a percentage inhibition in incorporation of controls.” for “counter.”
(§7) The cell lines examined in this study included the (Ly-2^+) murine thymoma ITT(1)75NS E3 variant (E3), the (L3T4^+) lymphoma EL4 (Horowitz et al, Science 1968 160 533-535), the human colon carcinoma Colo 205 (Semple et al, Cancer Res. 1978 38 1345-1355) and the (Ly-2^-, L3T4^-) human T cell leukemia CEM (Foley et al, Cancer 1965 18 522-529). Cells were maintained in vitro as described in Example 1. […] Mice were then subjected to a series of i.v. treatments and the size of the tumours was measured daily with a caliper square, measuring along the perpendicular axes of the tumours. […]

E3 thymoma = test: i.v. treatment of s.c. E3 thymoma in CBF1 mice (2.0×10^6 cells); assay type: in vivo; conditions: 20 ug Ida, days 4 and 5
Excerpt: The cell lines examined in this study included the (Ly-2^+) murine thymoma ITT(1) 75NS E3 variant (E3) (Smyth et al, J. Natl Cancer Inst. 1986 76 503-510), the (Ly-2^-, TFR^-) lymphoma EL4 (Horowitz et al, Science 1968 160 533-535), the (TFR^+) human cell line CEM (Foley et al Cancer 1965 18 522-529) and the (250-30.6^+) human cell line COLO 205. Cells were maintained in vitro in Dulbecco's Modified Eagle's medium (DME) or RPMI 1640 medium (Flow Laboratories, Sydney, Australia), supplemented with 10% heat inactivated newborn calf serum (Flow), 2 mM glutamine (Commonwealth Serum Laboratories, Sydney, Australia); 100 ug/ml streptomycin (Glaxo, Melbourne, Australia) and 100 I.U./ml penicillin (Commonwealth Serum Laboratories). The E3 tumour was maintained in vivo by serial passage into (C57BL/6×BALB/c)F1 mice (CBF1 mice). Cells from the ascites fluid were washed and centrifuged (400 g×5 min) twice in phosphate buffered saline (PBS), pH7.3, resuspended in PBS and injected subcutaneously (s.c.) into the abdominal wall of mice; these developed into palpable tumours prior to treatment. Mice were subjected to a series of intraveneous (i.v.) or intratumour (i.t.) treatments and the subsequent size of tumours was measured daily with a caliper square, measuring along the perpendicular axes of the tumours. Data was recorded as mean tumour size (product of two diameters ± standard error). […]

COLO 205 xenografts = test: i.v. treatment of COLO 205 xenografts in nude mice; assay type: in vivo, nude (nu/nu) mice; human tumour; conditions: total 275 ug Ida
Description: Injection of 2×10^6 cells subcutaneously into the abdominal wall yielded a palpable lump within 4 days (approx. 0.1 cm^2).

COLO 205 [6] = test: 24 hour inhibition assay ([^3 H]-thymidine incorporation), COLO 205; assay type: cell-based; conditions: Homo sapiens
Description: as §3, with “error). […]” for “error).”
as §4, with “counter. Incorporation of [^3 H]-thymidine was expressed as a percentage inhibition in incorporation of controls. […]” for “counter.”

(L3T4^+) lymphoma EL4 [7] = test: 24 hour inhibition assay ([^3 H]-thymidine incorporation), EL4; assay type: cell-based; conditions: Table 3; EL4, 24 hr; read-out: Mean I.D.50 values (Ida (M))
Description: (a) 24 hour inhibition assay: 100 ul of cells (2-5×10^6 /ml) were added to a flat-bottomed microtitre plate and incubated for 1 hour at 37° C. Free Idarubicin (Ida) (dissolved in PBS) and Ida-MoAb conjugates were filtered aseptically and dilutions were performed in sterile PBS; 50 ul of free Ida or conjugate were added to the cells using duplicate wells for each sample; control wells received 50 ul of PBS and the cells were cultured at 37° C., 7% CO2 for 24 hours.
as §4, with “counter. Incorporation of [^3 H]-thymidine was expressed as a percentage inhibition in incorporation of controls.” for “counter.”
as §7, with “522-529).” for “522-529). Cells were maintained in vitro as described in Example 1.”

human cell line CEM [8] = test: 24 hour inhibition assay ([^3 H]-thymidine incorporation), CEM; assay type: cell-based
Excerpt: The cell lines examined in this study included the (Ly-2^+) murine thymoma ITT(1) 75NS E3 variant (E3) (Smyth et al, J. Natl Cancer Inst. 1986 76 503-510), the (Ly-2^-, TFR^-) lymphoma EL4 (Horowitz et al, Science 1968 160 533-535), the (TFR^+) human cell line CEM (Foley et al Cancer 1965 18 522-529) and the (250-30.6^+) human cell line COLO 205. Cells were maintained in vitro in Dulbecco's Modified Eagle's medium (DME) or RPMI 1640 medium (Flow Laboratories, Sydney, Australia), supplemented with 10% heat inactivated newborn calf serum (Flow), 2 mM glutamine (Commonwealth Serum Laboratories, Sydney, Australia); 100 ug/ml streptomycin (Glaxo, Melbourne, Australia) and 100 I.U./ml penicillin (Commonwealth Serum Laboratories). […] Mice were subjected to a series of intraveneous (i.v.) or intratumour (i.t.) treatments and the subsequent size of tumours was measured daily with a caliper square, measuring along the perpendicular axes of the tumours. Data was recorded as mean tumour size (product of two diameters ± standard error).
as §4

[9] = test system: murine thymoma ITT(1) 75NS E3 (Ly-2^+); test: 30 minute inhibition assay ([^3 H]-thymidine incorporation), E3; assay type: cell-based; conditions: 0.5 h
Excerpt: The cell lines examined in this study included the (Ly-2^+) murine thymoma ITT(1) 75NS E3 variant (E3) (Smyth et al, J. Natl Cancer Inst. 1986 76 503-510), the (Ly-2^-, TFR^-) lymphoma EL4 (Horowitz et al, Science 1968 160 533-535), the (TFR^+) human cell line CEM (Foley et al Cancer 1965 18 522-529) and the (250-30.6^+) human cell line COLO 205. Cells were maintained in vitro in Dulbecco's Modified Eagle's medium (DME) or RPMI 1640 medium (Flow Laboratories, Sydney, Australia), supplemented with 10% heat inactivated newborn calf serum (Flow), 2 mM glutamine (Commonwealth Serum Laboratories, Sydney, Australia); 100 ug/ml streptomycin (Glaxo, Melbourne, Australia) and 100 I.U./ml penicillin (Commonwealth Serum Laboratories). The E3 tumour was maintained in vivo by serial passage into (C57BL/6×BALB/c)F1 mice (CBF1 mice). Cells from the ascites fluid were washed and centrifuged (400 g×5 min) twice in phosphate buffered saline (PBS), pH7.3, resuspended in PBS and injected subcutaneously (s.c.) into the abdominal wall of mice; these developed into palpable tumours prior to treatment. Mice were subjected to a series of intraveneous (i.v.) or intratumour (i.t.) treatments and the subsequent size of tumours was measured daily with a caliper square, measuring along the perpendicular axes of the tumours. Data was recorded as mean tumour size (product of two diameters ± standard error).
as §6

## CC(=O)[C@]1(O)Cc2c(O)c3c(c(O)c2[C@@H](O[C@H]2C[C@H](N)[C@H](O)[C@H](C)O2)C1)C(=O)c1ccccc1C3=O [Ida, 4-demethoxy-daunorubicin]
CBA mice (organs); 15 days
  spleen histopathology: atrophy of the white pulp in the spleen
CBA mice (organs); data not shown
  cardiac histopathology: some hypertrophy of cardiac muscle fibres
Solid E3 tumour
  anti-tumour activity / effect on tumour growth: not affecting tumour growth
CBA mice; Table 2, Ida (mg/kg)
  L.D.10: 0.75 mg/kg
CBA mice; mg/kg of Ida, single i.v.
  LD10: 0.75 mg/kg
CBA mice; single i.v. injection, all mice
  initial weight loss (of original weight): up to 25%
[1]
  LD50: 3 mg/kg
Tumour cell lines tested
  activity of free Ida relative to Ida-MoAb conjugates: 4-10 times
COLO 205 [2]; COLO 205, 30 min, Example 1, read-out: dose response to free drug (I.D.50)
  IC50: 9.2e-07 M
COLO 205 [2]; Table 3, Colo 205, 30 min, read-out: Mean I.D.50 values (Ida (M))
  IC50: 1.2e-07 M
Human cell line CEM [3]
  IC50: 2.2e-07 M
E3 and CEM cell lines
  cytotoxicity of free Ida compared with conjugates: more cytotoxic to both E3 and CEM than Ida-anti-Ly-2.1 and Ida-anti-TFR respectively
[4]; Table 1, E3, 24 hour assay, read-out: Mean I.D.50 (50% inhibition in [^3 H]-thymidine incorporation of controls)
  IC50: 1.2e-07 M
[4]; Table 3, E3, 24 hr, read-out: Mean I.D.50 values (Ida (M))
  IC50: 7.8e-08 M
(L3T4^+) lymphoma EL4 [5]
  IC50: 1.6e-07 M
E3 thymoma
  tumour reduction: up to 50%
E3 thymoma; of 10 mice
  mice died: 3
COLO 205 xenografts
  mice survived: 2 out of 10
COLO 205 [6]; Table 3, Colo 205, 24 hr, read-out: Mean I.D.50 values (Ida (M))
  IC50: 8e-08 M
COLO 205 [6]; target cell line COLO 205, Example 1, read-out: I.D.50 (the source's name)
  IC50: 6e-08 M
(L3T4^+) lymphoma EL4 [7]
  IC50: 6.6e-08 M
Human cell line CEM [8]; Table 1, 24 hour assay, read-out: Mean I.D.50 (50% inhibition in [^3 H]-thymidine incorporation of controls)
  IC50: 2.2e-07 M
Human cell line CEM [8]; Table 3, 24 hr, read-out: Mean I.D.50 values (Ida (M))
  IC50: 9e-08 M
[9]; E3, 30 min, compared with COLO 205, Example 1, read-out: dose response to free drug (I.D.50)
  IC50: 9.8e-07 M
[9]; Mus musculus, E3, incubated 30 minutes, Example 1, read-out: I.D.50 (the source's name)
  IC50: 5.2e-07 M
[9]; Mus musculus, Table 3, E3, 30 min, read-out: Mean I.D.50 values (Ida (M))
  IC50: 1.8e-07 M
